The values below come from ChEMBL document CHEMBL4393657, “Tetrazole hybrids and their antifungal activities” (2019).

Holding throughout (format): functional
The subject of assay [1] is Aspergillus niger. Nature of the assay: Antifungal activity against Aspergillus niger assessed as reduction in fungal cell growth incubated for 48 hrs by broth microdilution susceptibility method. In general terms: Dilution methods test growth across graded concentrations, often in twofold steps.
The subject of assay [2] is Candida albicans. Nature of the assay: Antifungal activity against Candida albicans assessed as reduction in fungal cell growth incubated for 48 hrs by broth microdilution susceptibility method.
Assay [3] has as its system Candida albicans. Kind of assay: Antifungal activity against Candida albicans NCCS 3471 assessed as inhibition zone at 50 ug/ml incubated for 3 to 4 days by disk diffusion method. To be noted: read-out: IZ.
Assay [4] has as its system Aspergillus fumigatus. Nature of the assay: Antifungal activity against Aspergillus fumigatus NCIM 902 assessed as inhibition zone at 50 ug/ml incubated for 3 to 4 days by disk diffusion method. Conditions: read-out: IZ.
The subject of assay [5] is Candida albicans. Kind of assay: Antifungal activity against Candida albicans ATCC 885653 assessed as inhibition zone at 100 ug/ml incubated for 48 to 72 hrs by agar-diffusion method. Conditions: read-out: IZ. A general note: A growth-free zone around the sample is the usual read-out of agar diffusion tests.
In assay [6] the test system is Candida albicans. Nature of the assay: Antifungal activity against Candida albicans assessed as inhibition zone at 25 ug/ml by disk diffusion method. To be noted: read-out: IZ.
Assay [7] deals with Aspergillus niger. Nature of the assay: Antifungal activity against Aspergillus niger assessed as inhibition zone at 25 ug/ml by disk diffusion method. To be noted: read-out: IZ.
The subject of another assay is Aspergillus flavus. Kind of assay: Antifungal activity against Aspergillus flavus assessed as inhibition zone at 25 ug/ml by disk diffusion method. Conditions: read-out: IZ.
The test system of assay [8] is Aspergillus fumigatus. Nature of the assay: Antifungal activity against Aspergillus fumigatus assessed as inhibition zone at 25 ug/ml by disk diffusion method. Conditions: read-out: IZ.
In assay [9] the test system is Aspergillus niger. Nature of the assay: Antifungal activity against Aspergillus niger assessed as inhibition zone at 250 ug/ml. Conditions: read-out: IZ.
In assay [10] the test system is Candida albicans. Nature of the assay: Antifungal activity against Candida albicans assessed as inhibition zone at 250 ug/ml. Conditions: read-out: IZ.
Assay [11] deals with Candida albicans. Kind of assay: Antifungal activity against Candida albicans TA.
Assay [12] concerns Candida albicans. Nature of the assay: Antifungal activity against Candida albicans assessed as inhibition zone at 125 ug/ml by disk diffusion method. To be noted: read-out: IZ.
The test system of assay [13] is Candida albicans. Kind of assay: In vivo antifungal activity against Candida albicans TA infected in CDF-1 mouse dosed orally assessed as survival of mouse. Conditions: po.

In brackets after ≈: the same amount, converted by molar mass.

By MIC is commonly meant the smallest concentration in the dilution series that meets the test's criterion for growth inhibition. For `COc1ccc(-c2nn[se]c2-n2nnc(-c3ccc(Cl)cc3)n2)cc1`, the MIC in the assay with Aspergillus niger [1] and in the assay on Candida albicans [2] was 100 to 400 µg/mL (≈ 239 to 958 µM) throughout.

For the compound `Clc1cccc(-n2nnnc2-c2cccnc2)c1Cl`, the zone of inhibition at 50 µg/mL in the assay with Candida albicans [3] is 16 mm; in the assay with Aspergillus fumigatus [4], 18 mm.

Take `NCCSc1nc2ccccc2c2nnnn12`: the zone of inhibition at 100 µg/mL with Candida albicans [5] lay in the range of 6 to 22 mm.

Turning to `Clc1ccc(OCc2cn(Cc3ccc(-c4ccccc4-c4nnn[nH]4)cc3)nn2)cc1`, the zone of inhibition at 25 µg/mL in the assay with Candida albicans [6], in the assay on Aspergillus niger [7], with Aspergillus flavus and with Aspergillus fumigatus [8] was 11 to 18 mm in each case.

For `c1ccc(OCc2cn(Cc3ccc(-c4ccccc4-c4nnn[nH]4)cc3)nn2)cc1`, the zone of inhibition at 25 µg/mL in the assay on Candida albicans [6], in the assay on Aspergillus niger [7], in the assay with Aspergillus flavus and in the assay on Aspergillus fumigatus [8] was 11 to 18 mm each time.

Take `Clc1ccccc1-n1nnnc1-c1cccnc1`: the zone of inhibition at 50 µg/mL in the assay on Candida albicans [3] is 17 mm; with Aspergillus fumigatus [4] it was 15 mm.

Turning to `Clc1ccc(-c2nnn(-c3[se]nnc3-c3ccc(Cl)cc3)n2)cc1`, the MIC in the assay with Aspergillus niger [1] and with Candida albicans [2] was 6.25 µg/mL (≈ 14.8 µM) throughout.

For the compound `O=[N+]([O-])c1ccc(-c2nnnn2-c2nc3ccccc3s2)cc1`, the zone of inhibition at 250 µg/mL in the assay on Aspergillus niger [9] and in the assay with Candida albicans [10] was 13 to 23 mm throughout.

Consider `COc1ccccc1-n1nnnc1-c1cccnc1`, for which the zone of inhibition at 50 µg/mL in the assay with Candida albicans [3] and with Aspergillus fumigatus [4] was 10 to 19 mm in each case.

Consider `C[C@@H](n1ncnn1)[C@](O)(Cn1cncn1)c1ccc(Cl)cc1`, for which the MIC with Candida albicans [11] was found to be 100 µg/mL (≈ 313 µM).

Consider `O=[N+]([O-])c1ccc(/N=C/c2cc3cc(-c4nc5ccccc5[nH]4)ccc3n3nnnc23)cc1`, for which the zone of inhibition at 125 µg/mL with Candida albicans [12] was in the range of 7 to 12 mm.

Turning to `c1ccc(-c2nnnn2-c2nc3ccccc3s2)cc1`, the zone of inhibition at 250 µg/mL in the assay with Aspergillus niger [9] and with Candida albicans [10] was 13 to 23 mm in each case.

Take `Clc1ccc(/N=C/c2cc3cc(-c4nc5ccccc5[nH]4)ccc3n3nnnc23)cc1`: in the assay with Candida albicans [12], the zone of inhibition at 125 µg/mL was in the range of 7 to 12 mm.

In the case of `COc1cc(-c2nnnn2-c2nc3ccccc3s2)cc(OC)c1OC`, the zone of inhibition at 250 µg/mL with Aspergillus niger [9] and in the assay on Candida albicans [10] was 13 to 23 mm throughout.

Take `COc1ccc(-c2nn[se]c2-n2nnc(-c3ccc(C)cc3)n2)cc1`: the MIC in the assay on Aspergillus niger [1] and in the assay on Candida albicans [2] was 100 to 400 µg/mL (≈ 252 to 1010 µM) in each case.

As for `Oc1ccc(-c2nnnn2-c2nc3ccccc3s2)cc1`, the zone of inhibition at 250 µg/mL with Aspergillus niger [9] and in the assay with Candida albicans [10] was 13 to 23 mm throughout.

For the compound `O=[N+]([O-])c1cccc(-c2nnnn2-c2nc3ccccc3s2)c1`, the zone of inhibition at 250 µg/mL with Aspergillus niger [9] and in the assay on Candida albicans [10] was 13 to 23 mm in each case.

Regarding `c1ccc(-n2nnnc2-c2cccnc2)cc1`, the zone of inhibition at 50 µg/mL in the assay with Candida albicans [3] and with Aspergillus fumigatus [4] was 10 to 19 mm throughout.

Take `Cc1ccc(C(=O)CSc2nc3ccccc3c3nnnn23)cc1`: in the assay with Candida albicans [5], the zone of inhibition at 100 µg/mL is 6 to 22 mm.

In the case of `CC(C)NCCSc1nc2ccccc2c2nnnn12`, the zone of inhibition at 100 µg/mL with Candida albicans [5] was in the range of 6 to 22 mm.

With `COc1ccc(-c2nn[se]c2-n2nnc(-c3ccccc3)n2)cc1`, the MIC in the assay with Aspergillus niger [1] and in the assay with Candida albicans [2] was 100 to 400 µg/mL (≈ 261 to 1040 µM) each time.

In the case of `Oc1cccc(-c2nnnn2-c2nc3ccccc3s2)c1`, the zone of inhibition at 250 µg/mL in the assay with Aspergillus niger [9] and in the assay on Candida albicans [10] was 13 to 23 mm each time.

Regarding `Cc1cccc(OCc2cn(Cc3ccc(-c4ccccc4-c4nnn[nH]4)cc3)nn2)c1`, the zone of inhibition at 25 µg/mL in the assay with Candida albicans [6], in the assay on Aspergillus niger [7], with Aspergillus flavus and with Aspergillus fumigatus [8] was 11 to 18 mm throughout.

In turn, `C[C@@H](n1ncnn1)[C@](O)(Cn1cncn1)c1ccc(F)cc1` yielded a minimal inhibitory concentration (MIC) against Candida albicans [11] of 100 µg/mL (≈ 330 µM).

Take `Cc1ccc(/N=C/c2cc3cc(-c4nc5ccccc5[nH]4)ccc3n3nnnc23)cc1`: the zone of inhibition at 125 µg/mL in the assay on Candida albicans [12] lay in the range of 7 to 12 mm.

For `Oc1ccc(-c2nnnn2-c2nc3ccccc3s2)cc1O`, the zone of inhibition at 250 µg/mL in the assay with Aspergillus niger [9] and with Candida albicans [10] was 13 to 23 mm in each case.

Consider `COc1ccc(-n2nnnc2-c2cccnc2)cc1`, for which the zone of inhibition at 50 µg/mL in the assay on Candida albicans [3] and in the assay on Aspergillus fumigatus [4] was 10 to 19 mm each time.

Regarding `Clc1ccc(-c2nn[se]c2-n2nnc(-c3ccccc3Cl)n2)cc1`, the minimum inhibitory concentration (MIC) in the assay with Aspergillus niger [1] and in the assay on Candida albicans [2] was 6.25 µg/mL (≈ 14.8 µM) each time.

Turning to `O=C(CSc1nc2ccccc2c2nnnn12)c1ccccc1`, in the assay on Candida albicans [5], the zone of inhibition at 100 µg/mL was 6 to 22 mm.

With `COc1ccc(-c2nn[se]c2-n2nnc(-c3ccccc3Cl)n2)cc1`, the MIC with Aspergillus niger [1] and in the assay with Candida albicans [2] was 100 to 400 µg/mL (≈ 239 to 958 µM) in each case.

On to `Cc1ccc(-n2nnnc2-c2cccnc2)cc1`, for which the zone of inhibition at 50 µg/mL in the assay with Candida albicans [3] and in the assay on Aspergillus fumigatus [4] was 10 to 19 mm each time.

Consider `Cc1ccc(-c2nnnn2-c2nc3ccccc3s2)cc1`, for which the zone of inhibition at 250 µg/mL with Aspergillus niger [9] and with Candida albicans [10] was 13 to 23 mm each time.

For `COc1ccc(/N=C/c2cc3cc(-c4nc5ccccc5[nH]4)ccc3n3nnnc23)cc1`, in the assay on Candida albicans [12], the zone of inhibition at 125 µg/mL fell in the range of 7 to 12 mm.

What is called ED50 is the dose at which the effect has come halfway, by size or by number of responders. Regarding `C[C@@H](n1cnnn1)[C@](O)(Cn1cncn1)c1ccc(F)cc1`, the MIC against Candida albicans [11] was 12.5 to 100 µg/mL (≈ 41.2 to 330 µM). Besides, the ED50 with Candida albicans [13] lay in the range of 0.18 to 1.54 mg/kg.

`C[C@@H](n1cnnn1)[C@](O)(Cn1cncn1)c1ccccc1F` had a minimum inhibitory concentration (MIC) against Candida albicans [11] of 12.5 to 100 µg/mL (≈ 41.2 to 330 µM). In addition, in the assay on Candida albicans [13], the median effective dose (ED50) was 0.18 to 1.54 mg/kg.

Take `O=C(O)c1cccc(/N=C/c2cc3cc(-c4nc5ccccc5[nH]4)ccc3n3nnnc23)c1`: the zone of inhibition at 125 µg/mL in the assay with Candida albicans [12] lay in the range of 7 to 12 mm.

Consider `O=[N+]([O-])c1ccc(-n2nnnc2-c2cccnc2)cc1`, for which the zone of inhibition at 50 µg/mL in the assay on Candida albicans [3] and with Aspergillus fumigatus [4] was 10 to 19 mm in each case.

As to `Oc1ccc(/N=C/c2cc3cc(-c4nc5ccccc5[nH]4)ccc3n3nnnc23)cc1`, in the assay with Candida albicans [12], the zone of inhibition at 125 µg/mL was 7 to 12 mm.

As to `O=C(O)c1ccc(/N=C/c2cc3cc(-c4nc5ccccc5[nH]4)ccc3n3nnnc23)cc1`, the zone of inhibition at 125 µg/mL with Candida albicans [12] was 7 to 12 mm.

Turning to `CNCCSc1nc2ccccc2c2nnnn12`, the zone of inhibition at 100 µg/mL in the assay with Candida albicans [5] fell in the range of 6 to 22 mm.

In the case of `COc1ccc(C(=O)CSc2nc3ccccc3c3nnnn23)cc1`, in the assay on Candida albicans [5], the zone of inhibition at 100 µg/mL lay in the range of 6 to 22 mm.

As for `C(=N\c1ccccc1)/c1cc2cc(-c3nc4ccccc4[nH]3)ccc2n2nnnc12`, in the assay on Candida albicans [12], the zone of inhibition at 125 µg/mL lay within 7 to 12 mm.

Turning to `Clc1ccc(-c2nn[se]c2-n2nnc(-c3ccccc3)n2)cc1`, the MIC in the assay on Aspergillus niger [1] and with Candida albicans [2] was 100 to 400 µg/mL (≈ 258 to 1030 µM) throughout.

Consider `C[C@@H](n1ncnn1)[C@](O)(Cn1cncn1)c1ccccc1F`, for which, in the assay on Candida albicans [11], 100 µg/mL (≈ 330 µM) was the least that counted as inhibitory (MIC).

Take `O=[N+]([O-])c1ccccc1-n1nnnc1-c1cccnc1`: the zone of inhibition at 50 µg/mL in the assay on Candida albicans [3] and in the assay with Aspergillus fumigatus [4] was 10 to 19 mm in each case.

Turning to `Clc1ccc(-n2nnnc2-c2cccnc2)cc1`, the zone of inhibition at 50 µg/mL with Candida albicans [3] and in the assay on Aspergillus fumigatus [4] was 10 to 19 mm in each case.

With `Brc1ccc(-n2nnnc2-c2cccnc2)cc1`, the zone of inhibition at 50 µg/mL came out at 19 mm with Candida albicans [3] and 17 mm in the assay on Aspergillus fumigatus [4].

As to `C[C@@H](n1cnnn1)[C@](O)(Cn1cncn1)c1ccc(Cl)cc1`, the MIC against Candida albicans [11] was 12.5 to 100 µg/mL (≈ 39.1 to 313 µM). In addition, in the assay on Candida albicans [13], the ED50 lay in the range of 0.18 to 1.54 mg/kg.

On to `Cc1ccc(-c2nnn(-c3[se]nnc3-c3ccc(Cl)cc3)n2)cc1`, for which the minimal inhibitory concentration (MIC) in the assay on Aspergillus niger [1] and with Candida albicans [2] was 100 to 400 µg/mL (≈ 249 to 996 µM) each time.

`C[C@@H](n1ncnn1)[C@](O)(Cn1cncn1)c1ccc(F)cc1F` showed an MIC against Candida albicans [11] of 100 µg/mL (≈ 311 µM).

For the compound `CN(C)c1ccc(-c2nnnn2-c2nc3ccccc3s2)cc1`, the zone of inhibition at 250 µg/mL in the assay on Aspergillus niger [9] and with Candida albicans [10] was 13 to 23 mm each time.

`COc1ccc(OC)c(C(=O)CSc2nc3ccccc3c3nnnn23)c1`: the zone of inhibition at 100 µg/mL in the assay on Candida albicans [5] stood at 22 mm.
